One assay has as its system apoptotic cells. In words: Test of apoptosis in brain tissue by TUNEL kit. The assay is classed as in vivo, rat. Particulars: GM-1 group; after modeling for 8 days. As for the experimental part:
The rLZ-8 high-dosage group, the rLZ-8 middle-dosage group and the rLZ-8 low-dosage group were provided and prepared by physiological saline to respectively have a concentration of 70 μg·ml^−1, 35 μg·ml^−1 and 17.5 μg·ml^−1. TUNEL kit.
The sham operation group, the model group, the positive drug control group, the rLZ-8 high-dosage group (70 μg·ml^−1), the rLZ-8 middle-dosage group (35 μg·ml^−1) and the rLZ-8 low-dosage group (17.5 μg·ml^−1) were provided.
After being embedded by conventional paraffin and sectioned, a brain tissue paraffin section was processed according to instructions of the TUNEL kit. […]

The test system of assay [1] is rat focal cerebral ischemia models. As to the kind of experiment: NSS grading (modified neurological severity scores, 16-point system) in rat focal cerebral ischemia models. It is filed as in vivo. Particulars: GM-1 positive drug control group. As for the experimental part: Preparing rat focal cerebral ischemia models through a modified Zea Longa method; grading the rats which were fully conscious after operation according to a modified NSS grading standard (16-point system); arranging a sham operation group, a model group, a positive drug control group, a rLZ-8 high-dosage group (70 μg·kg^−1), a rLZ-8 middle-dosage group (35 μg·kg^−1) and a rLZ-8 low-dosage group (17.5 μg·kg^−1); and injecting intraperitoneally, twice a day, wherein the same volume of physiological saline was injected into the sham operation group and the model group, for consecutive 7 days. A positive drug in the positive drug control group was the GM-1.

Assay [2] in a line: Weights of rats with focal cerebral ischemia. It is filed as in vivo, rat. The conditions noted are these: GM-1 group, in g (unit assumed). The text has this: Weighing rats before modeling; preparing rat focal cerebral ischemia models through a modified Zea Longa method; weighing the rats on the first postoperative day; and weighing the rats after consecutively administrating a drug for 7 days.

For another assay, the system named is ED-1 positive cells. In words: ED-1 positive cell expression in brain tissue (immunohistochemistry). It is filed as in vivo, rat. The conditions noted are these: GM-1 group; after modeling for 8 days. The protocol:
The rLZ-8 high-dosage group, the rLZ-8 middle-dosage group and the rLZ-8 low-dosage group were provided and prepared by physiological saline to respectively have a concentration of 70 μg·ml^−1, 35 μg·ml^−1 and 17.5 μg·ml^−1. ED-1 antibody was provided by Wuhan Boster Biological Technology Co., Ltd., and PV-6000 two-step method immunohistochemical detection reagent was provided by Beijing Zhongshan Golden Bridge Biotechnology Co., Ltd.
The sham operation group, the model group, the positive drug control group, the rLZ-8 high-dosage group (70 μg·kg^−1), the rLZ-8 middle-dosage group (35 μg·kg^−1) and the rLZ-8 low-dosage group (17.5 μg·kg^−1) were provided.
After being embedded by conventional paraffin and sectioned, a brain tissue paraffin section was tested through an immunologic tissue chemical staining method to test an ED-1 positive cell expression thereof. […]

On to “monosialotetrahexosyl ganglioside sodium injection [GM-1]”, for which the “Apoptotic cell number (TUNEL)” value in the assay with apoptotic cells was 23.10 ± 2.47. In addition, the NSS grading amounted to 4.33 ± 1.30 in assay [1] (1st day); 3.92 ± 1.38 in assay [1] (2nd day); 3.58 ± 1.24 in assay [1] (3rd day); 2.75 ± 1.09 in assay [1] (4th day); 2.50 ± 1.00 in assay [1] (5th day); 2.58 ± 1.08 in assay [1] (6th day). Besides, the NSS grading in assay [1] (7th day) came to 2.41 ± 1.00; in assay [1] (i.p. twice a day, 0th day, n=12) it was 4.75 ± 1.30. Also, the Weights of rats in assay [2] (0th day after modeling (before modeling)) is reported as 266.17 ± 21.21; in assay [2] (1st day after modeling) it was 246.17 ± 21.99; in assay [2] (8th day after modeling, drug for 7 days) it was 251.17 ± 40.31. Also, the “ED-1 positive cell number” value in the assay on ED-1 positive cells came to 13.87 ± 2.39.

Source of the values: US20160199439A1, “Application of recombinant immunoregulatory protein of ganoderma lucidum in preparation of drug for treating focal cerebral ischemia” (priority 2013, published 2016).
